Measurements as given in paper PMC6981274, “Structure and mechanism of a Type III CRISPR defence DNA nuclease activated by cyclic oligoadenylate” (Nature Communications, 2020).

Target: T1, Can1 (CRISPR ancillary nuclease 1; TTHB155) (Thermus thermophilus, UniProt Q53W14)
T1 construct: full length 636 aa plus C-terminal Leu-Glu; synthetic gene, E. coli C43 (DE3) (SeMet protein in B834), N-terminal His tag cut with TEV; monomer
T1 sequence (Q53W14 1-636): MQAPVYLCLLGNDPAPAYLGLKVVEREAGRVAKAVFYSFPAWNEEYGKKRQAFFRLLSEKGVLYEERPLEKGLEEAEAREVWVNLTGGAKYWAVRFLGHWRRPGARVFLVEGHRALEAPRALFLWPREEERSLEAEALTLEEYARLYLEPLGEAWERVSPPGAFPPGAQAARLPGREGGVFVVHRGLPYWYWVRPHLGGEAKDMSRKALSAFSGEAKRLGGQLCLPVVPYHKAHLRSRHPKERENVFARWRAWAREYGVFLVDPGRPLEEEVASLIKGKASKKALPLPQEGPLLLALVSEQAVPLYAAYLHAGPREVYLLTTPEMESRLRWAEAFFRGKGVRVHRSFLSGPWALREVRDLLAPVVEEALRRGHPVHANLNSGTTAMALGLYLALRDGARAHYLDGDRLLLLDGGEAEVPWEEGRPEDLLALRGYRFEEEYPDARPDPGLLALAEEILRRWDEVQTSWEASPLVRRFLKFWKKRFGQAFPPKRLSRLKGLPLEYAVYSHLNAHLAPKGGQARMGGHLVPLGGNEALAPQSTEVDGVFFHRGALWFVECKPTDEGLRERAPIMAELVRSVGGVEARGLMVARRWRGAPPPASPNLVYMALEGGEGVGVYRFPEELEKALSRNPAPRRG
Experiment: X-ray crystal structure ([…] A); also EMSA with […]-labelled cA4, SAXS and nuclease activation
Type: binding
Conditions: SeMet protein, 1:2 molar ratio with cA4, pH 6.5; site between the two CARF domains; activator

- X-ray crystal structure (1.83 A); also EMSA with 32P-labelled cA4, SAXS and nucl: A molecule of cA4 sits at the interface
SMILES: Nc1ncnc2c1ncn2[C@@H]1O[C@@H]2COP(=O)(O)O[C@H]3[C@@H](O)[C@H](n4cnc5c(N)ncnc54)O[C@@H]3COP(=O)(O)O[C@H]3[C@@H](O)[C@H](n4cnc5c(N)ncnc54)O[C@@H]3COP(=O)(O)O[C@H]3[C@@H](O)[C@H](n4cnc5c(N)ncnc54)O[C@@H]3COP(=O)(O)O[C@H]2[C@H]1O [cA4]
